Columns and labels:
Format in all cases: in vivo, human
[1] = tested on: premenopausal women with uterine fibroids and heavy menstrual bleeding; assay: Phase 2a uterine fibroid trial: menstrual blood loss by alkaline hematin (AH) method; conditions: for percent of subjects who achieved the composite bleeding endpoint (MBL <80 mL at Final Month and ≥50% reduction in MBL from baseline): last 28 days of treatment, AH method, placebo 30%; for Average Total Blood Loss Measured by AH Method During Treatment: 3 months of treatment; for Average Blood Loss Per Cycle Measured by AH Method in Screening: screening (baseline before treatment)
Method: Methods for analyzing menstrual blood loss are known in the art and include, for example, the alkaline hematin method. The alkaline hematin method is based on the quantitation of menstrual blood collected on sanitary products (Hallberg L., Nilsoon L., Determination of Menstrual Blood Loss. Scand. J. Clin. Lab. Invest., 1964; 16:244-248). The method uses a strong alkaline solution to chemically convert the heme from bloodstained sanitary products to alkaline hematin, which is measured colorimetrically. When compared to a subject's serum hemoglobin (Hgb), the volume of blood loss in the menstrual products can be determined.
This example is a Phase 2a, multicenter, double-blind, placebo-controlled, randomized trial (N=280) with a 3-month treatment duration evaluating the safety and efficacy of Elagolix administered with or without Activella® in premenopausal women with uterine fibroids.
It evaluates the safety and efficacy of […] of Elagolix (100 mg BID, 200 mg BID, 200 mg BID plus low dose Activella® (a combination of 0.5 mg estradiol and 0.1 mg northindrone acetate), 300 mg BID, 300 mg BID plus 1.0 mg of Estrace and 200 mg cyclical Prometrium (collectively referred to as “EP”), 400 mg QD and 600 QD) versus placebo (PBO) to reduce uterine bleeding associated with uterine fibroids and to reduce fibroid volume and uterine volume in premenopausal women 20 to 49 years of age with heavy menstrual bleeding (HMB; >80 mL blood loss per menstrual cycle). The study involved the following six (6) cohorts:
There are a number of efficacy endpoints, but a composite endpoint consisting of two bleeding assessments was used to assess one measure of efficacy. It included the percent of subjects who achieved a menstrual blood loss (MBL) volume of <80 mL at the Final Month (last 28 days of treatment), and also achieved a ≥50% reduction in MBL volume from baseline to the Final Month (last 28 days of treatment) as measured by the Alkaline Hematin (AH) method. Eighty-five percent (85%), 97%, and 30% of subjects achieved the composite bleeding assessment endpoint in the 200 mg BID, 300 mg BID, and placebo groups, respectively (P<0.05 for 200 mg BID versus placebo in cohort 1, and 300 mg BID versus placebo in cohort 2). Eighty-two percent (82%) of subjects in the 200 mg BID+low-dose Activella® (low dose Activella® is a combination of (a combination of 0.5 mg estradiol and 0.1 mg norethindrone acetate) group achieved this composite endpoint. With respect to fibroid and uterine volumes, 63%, 55%, and 29% of subjects achieved a ≥25% reduction in fibroid volume and 50%, 68%, and 9% achieved a ≥25% reduction in uterine volume in the 200 mg BID, 300 mg BID, and placebo groups, respectively. In the 200 mg BID+low dose group, 53% and 42% of subjects achieved a ≥25% reduction in fibroid and uterine volume, respectively. Quality of life (QoL) measures were also determined using the “Responsiveness of the uterine fibroid symptom and health-related quality of life questionnaire” (UFS-QOL) (Harding, Gale, Coyne Karin S., Thompson Christine L., Spies James B, United BioSource Corporation, 7101 Wisconsin Avenue, Suite 600, Bethesda, Md., 20814, USA, Health and Quality Life Outcomes, 2008, 6, page 99).

[2] = tested on: premenopausal women with endometriosis; assay: Phase 2 endometriosis studies: endometriosis-associated pain efficacy
Method: Six Phase 2 randomized, double-blind, placebo-, and/or active-controlled, parallel-group, multiple dose studies were completed to evaluate elagolix as a treatment for endometriosis associated pain. Efficacy was assessed for dysmenorrhea (DYS), nonmenstrual pelvic pain (NMPP), dyspareunia, and general pelvic pain with a range of instruments.
Additional efficacy assessments included quality of life and the use of analgesics for control of endometriosis pain.
Across these Phase 2 studies, the enrollment criteria were similar and were intended to select premenopausal women aged 18 to 49 years of age with endometriosis confirmed by visual inspection (laparoscopy or laparotomy within 5 to 8 years of screening) who experienced moderate to severe endometriosis-associated pain. Women were included if they had regular menstrual cycles and no significant uterine fibroids or pelvic lesions.
Total daily doses of elagolix ranging from 75 to 250 mg were evaluated across a range of pain instruments measuring DYS, NMPP, or general pelvic pain (including patient global impression of change), during 12 or 24 weeks of treatment.

[3] = tested on: premenopausal women with endometriosis; assay: Phase 2 endometriosis studies: uterine bleeding by daily eDiary; conditions: for days of bleeding per month: eDiary
Method: The effects of elagolix on uterine bleeding were evaluated in the Phase 2 endometriosis program, with an analysis of the percentage of days of bleeding per month according to daily reporting of bleeding in an electronic diary (eDiary).

COc1cccc(-c2c(C)n(Cc3c(F)cccc3C(F)(F)F)c(=O)n(C[C@H](NCCCC(=O)O)c3ccccc3)c2=O)c1F [Elagolix, 4-((R)-2-[5-(2-fluoro-3-methoxy-phenyl)-3-(2-fluoro-6-trifluoromethyl-benzyl)-4-methyl-2,6-dioxo-3,6-dihydro-2H-pyrimidin-1-yl]-1-phenyl-ethylamino)-butyric acid]
percent of subjects who achieved the composite bleeding endpoint (MBL <80 mL at Final Month and ≥50% reduction in MBL from baseline) ([1]; 200 mg BID): 85% | inhibition of bleeding ([1]; 300 mg BID without add-back therapy, most of women achieved amenorrhea): maximum inhibition of bleeding | percent of subjects who achieved the composite bleeding endpoint (MBL <80 mL at Final Month and ≥50% reduction in MBL from baseline) ([1]; 300 mg BID): 97% | inhibition of bleeding ([1]; 400 mg QD, compared with 300 mg BID): slightly less effective | inhibition of bleeding ([1]; 600 mg QD, compared with 300 mg BID): slightly less effective | Average Total MBL from Days 36-65 Post-Baseline ([1]; Elagolix 100 BID, N = 26): 100.9 mL | Average Total MBL in Days 66-95 Post-Baseline ([1]; Elagolix 100 BID, N = 26): 65.4 mL | Average total MBL from days 6-35 post-baseline ([1]; Elagolix 100 BID, N = 26): 33.2 mL | Average Total Blood Loss Measured by AH Method During Treatment ([1]; Elagolix 100 BID, N = 26): 198.4 mL | Average Total MBL from Days 36-65 Post-Baseline ([1]; Elagolix 200 BID, N = 28): 5.5 mL | Average Total MBL in Days 66-95 Post-Baseline ([1]; Elagolix 200 BID, N = 28): 41.5 mL | Average total MBL from days 6-35 post-baseline ([1]; Elagolix 200 BID, N = 28): 0 mL | Average Total Blood Loss Measured by AH Method During Treatment ([1]; Elagolix 200 BID, N = 28): 47.0 mL | Average Total MBL from Days 36-65 Post-Baseline ([1]; Elagolix 300 BID, N = 26): 0 mL | Average Total MBL in Days 66-95 Post-Baseline ([1]; Elagolix 300 BID, N = 26): 4.3 mL | Average total MBL from days 6-35 post-baseline ([1]; Elagolix 300 BID, N = 26): 0 mL | Average Total Blood Loss Measured by AH Method During Treatment ([1]; Elagolix 300 BID, N = 26): 4.3 mL | Average Total MBL from Days 36-65 Post-Baseline ([1]; Elagolix 400 QD, N = 26): 12.4 mL | Average Total MBL in Days 66-95 Post-Baseline ([1]; Elagolix 400 QD, N = 26): 21.6 mL | Average total MBL from days 6-35 post-baseline ([1]; Elagolix 400 QD, N = 26): 14.9 mL | Average Total Blood Loss Measured by AH Method During Treatment ([1]; Elagolix 400 QD, N = 26): 38.4 mL | Average Total MBL from Days 36-65 Post-Baseline ([1]; Elagolix 600 QD, N = 24): 35.0 mL | Average Total MBL in Days 66-95 Post-Baseline ([1]; Elagolix 600 QD, N = 24): 14.9 mL | Average total MBL from days 6-35 post-baseline ([1]; Elagolix 600 QD, N = 24): 27.6 mL | Average Total Blood Loss Measured by AH Method During Treatment ([1]; Elagolix 600 QD, N = 24): 69.6 mL | Average Blood Loss Per Cycle Measured by AH Method in Screening ([1]; group Elagolix 100 BID, N = 26): 276.4 mL | Average Blood Loss Per Cycle Measured by AH Method in Screening ([1]; group Elagolix 200 BID, N = 28): 287.4 mL | Average Blood Loss Per Cycle Measured by AH Method in Screening ([1]; group Elagolix 300 BID, N = 26): 224.8 mL | Average Blood Loss Per Cycle Measured by AH Method in Screening ([1]; group Elagolix 400 QD, N = 26): 220.3 mL | Average Blood Loss Per Cycle Measured by AH Method in Screening ([1]; group Elagolix 600 QD, N = 24): 228.7 mL | quality of life assessments ([2]; Phase 2 endometriosis studies): improved quality of life assessments | symptoms of dyspareunia ([2]; Phase 2 endometriosis studies): reduced | effect on DYS and NMPP compared with DMPA-SC ([2]; daily dose of 150 mg): comparable effect | effect on DYS and NMPP compared with leuprorelin ([2]; daily doses of 150 mg and 250 mg): less effect | endometriosis-associated pain ([2]; daily doses of 100 to 250 mg, 12 or 24 weeks): clinically meaningful reductions | overall usage of analgesics for pain control ([2]; elagolix treatment arms): decreased | days of bleeding per month ([3]; 250 mg QD compared with 150 mg QD): fewer days of bleeding | bleeding intensity and intervals between bleeding episodes ([3]; majority of elagolix recipients, individual menstrual charts from eDiary): reduced bleeding intensity and often had extended intervals between bleeding episodes | days of bleeding per month ([3]; overall, compared with placebo): fewer days of bleeding per month

From US11707464B2, “Methods of treating heavy menstrual bleeding” (AbbVie Inc., priority 2013, dated 2023)
